According to patent publication US9890117B2, “Benzamide compounds and related methods of use” (Northwestern University, priority 2012, dated 2018):
Values belong to the compound of their own block, whether it stands above or below them.

Tests used:
SIRT2 = molecular target: T1, SIRT2 (Homo sapiens, UniProt Q8IXJ6); assay: Fluor-de-Lys biochemical sirtuin deacetylation assay, SIRT2; conditions: 10 μM
T1 construct: recombinant active enzymes SIRT1, SIRT2, and the catalytically active fragment of SIRT3
T1 sequence (Q8IXJ6 1-389): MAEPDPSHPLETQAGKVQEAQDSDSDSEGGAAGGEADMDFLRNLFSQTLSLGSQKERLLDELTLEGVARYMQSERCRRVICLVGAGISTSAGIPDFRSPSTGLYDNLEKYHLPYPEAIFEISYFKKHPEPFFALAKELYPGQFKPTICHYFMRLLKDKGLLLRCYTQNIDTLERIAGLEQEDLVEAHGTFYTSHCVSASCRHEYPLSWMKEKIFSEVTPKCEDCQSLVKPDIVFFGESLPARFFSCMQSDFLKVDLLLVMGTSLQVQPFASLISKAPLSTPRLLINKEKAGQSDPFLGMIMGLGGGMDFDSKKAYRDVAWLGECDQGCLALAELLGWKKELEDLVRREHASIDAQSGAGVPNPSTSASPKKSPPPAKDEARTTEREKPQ

Structure (SMILES): CCN(c1ccc(OC)cc1)S(=O)(=O)c1cccc(C(=O)Nc2ccc(C#N)cc2)c1 [Compound 203Ba, N-(4-cyanophenyl)-3-(N-ethyl-N-(4-methoxyphenyl)sulfamoyl)benzamide]
melting point: 168 to 169 °C | inhibition at 10 µM (SIRT2): 53%

Structure (SMILES): Cc1cc(Br)ccc1NC(=O)c1cccc(S(=O)(=O)N2CCCCCC2)c1 [Compound 203b, 3-(azepan-1-ylsulfonyl)-N-(4-bromo-2-methylphenyl)benzamide]
melting point: 177 to 179 °C | inhibition at 10 µM (SIRT2): 0%

Structure (SMILES): CCCN(CCC)S(=O)(=O)c1cccc(C(=O)Nc2ccc(Br)cc2C)c1 [Compound 203c, N-(4-bromo-2-methylphenyl)-3-(N,N-dipropylsulfamoyl)benzamide]
melting point: 135 to 136 °C | inhibition at 10 µM (SIRT2): 0%

Structure (SMILES): CCCN(CCC)S(=O)(=O)c1cccc(C(=O)Nc2ccc(Br)cc2)c1 [Compound 203d, N-(4-bromophenyl)-3-(N,N-dipropylsulfamoyl)benzamide]
melting point: 160 to 162 °C | inhibition at 10 µM (SIRT2): 9%

Structure (SMILES): CCCN(CCC)S(=O)(=O)c1cccc(C(=O)Nc2cccc(Br)c2)c1 [Compound 203f, N-(3-bromophenyl)-3-(N,N-dipropylsulfamoyl)benzamide]
melting point: 105 to 107 °C | inhibition at 10 µM (SIRT2): 60%

Structure (SMILES): CCCN(CCC)S(=O)(=O)c1cccc(C(=O)Nc2cccc([N+](=O)[O-])c2)c1 [Compound 203h, 3-(N,N-dipropylsulfamoyl)-N-(3-nitrophenyl)benzamide]
melting point: 126 to 128 °C | inhibition at 10 µM (SIRT2): 50%

Structure (SMILES): CC(=O)Nc1cccc(NC(=O)c2cccc(S(=O)(=O)N3CCCCCC3)c2)c1 [Compound 203k, N-(3-acetamidophenyl)-3-(azepan-1-ylsulfonyl)benzamide]
melting point: 117 to 120 °C | inhibition at 10 µM (SIRT2): 59%

Structure (SMILES): Cc1cc(Cl)ccc1N(C)C(=O)c1cccc(S(=O)(=O)N(C)c2ccc(Br)cc2)c1 [Compound 203l, 3-(N-(4-bromophenyl)-N-methylsulfamoyl)-N-(4-chloro-2-methylphenyl)-N-methylbenzamide]
melting point: 124 to 125 °C | inhibition at 10 µM (SIRT2): 25%

Structure (SMILES): Cc1cc(F)ccc1N(C)C(=O)c1cccc(S(=O)(=O)N(C)c2ccc(Br)cc2)c1 [Compound 203m, 3-(N-(4-bromophenyl)-N-methylsulfamoyl)-N-(4-fluoro-2-methylphenyl)-N-methylbenzamide]
melting point: 104 to 105 °C | inhibition at 10 µM (SIRT2): 28%

Structure (SMILES): Cc1cc(Cl)ccc1NC(=O)c1cccc(S(=O)(=O)N(C)c2ccc(Br)cc2)c1 [Compound 203n, 3-(N-(4-bromophenyl)-N-methylsulfamoyl)-N-(4-chloro-2-methylphenyl)benzamide]
melting point: 163 to 164 °C | inhibition at 10 µM (SIRT2): 18%

Structure (SMILES): Cc1cc(F)ccc1NC(=O)c1cccc(S(=O)(=O)N(C)c2ccc(Br)cc2)c1 [Compound 203o, 3-(N-(4-bromophenyl)-N-methylsulfamoyl)-N-(4-fluoro-2-methylphenyl)benzamide]
melting point: 163 to 165 °C | inhibition at 10 µM (SIRT2): 14%

Structure (SMILES): CN(c1ccc(Br)cc1)S(=O)(=O)c1cccc(C(=O)Nc2ccc(Cl)cc2F)c1 [Compound 203q, 3-(N-(4-bromophenyl)-N-methylsulfamoyl)-N-(4-chloro-2-fluorophenyl)benzamide]
melting point: 117 to 118 °C | inhibition at 10 µM (SIRT2): 29%

Structure (SMILES): CN(c1ccc(Br)cc1)S(=O)(=O)c1cccc(C(=O)Nc2ccc(F)cc2F)c1 [Compound 203u, 3-(N-(4-bromophenyl)-N-methylsulfamoyl)-N-(2,4-difluorophenyl)benzamide]
melting point: 119 to 120 °C | inhibition at 10 µM (SIRT2): 22%

Structure (SMILES): CN(c1ccc(Cl)cc1)S(=O)(=O)c1cccc(C(=O)Nc2ccc(Br)cc2F)c1 [Compound 203w, N-(4-bromo-2-fluorophenyl)-3-(N-(4-chlorophenyl)-N-methylsulfamoyl)benzamide]
melting point: 126 to 127 °C | inhibition at 10 µM (SIRT2): 31%

Structure (SMILES): CN(c1ccc(Cl)cc1)S(=O)(=O)c1cccc(C(=O)Nc2ccc(Cl)cc2C#N)c1 [Compound 203x, N-(4-chloro-2-cyanophenyl)-3-(N-(4-chlorophenyl)-N-methylsulfamoyl)benzamide]
melting point: 157 to 158 °C | inhibition at 10 µM (SIRT2): 15%

Next, values leading:

melting point: 187 to 189 °C | inhibition at 10 µM (SIRT2): 28%
Structure (SMILES): CN(c1ccc(Cl)cc1)S(=O)(=O)c1cccc(NC(=O)c2ccc(Br)cc2)c1 [Compound 207a, 4-bromo-N-(3-(N-(4-chlorophenyl)-N-methylsulfamoyl)phenyl)benzamide]

melting point: 216 to 218 °C | inhibition at 10 µM (SIRT2): 57%
Structure (SMILES): CN(c1ccc(S(C)(=O)=O)cc1)S(=O)(=O)c1cccc(NC(=O)c2ccc(Br)cc2)c1 [Compound 207b, 4-bromo-N-(3-(N-methyl-N-(4-(methylsulfonyl)phenyl)sulfamoyl)phenyl)benzamide]

melting point: 184 to 186 °C | inhibition at 10 µM (SIRT2): 47%
Structure (SMILES): CN(c1ccc(S(C)(=O)=O)cc1)S(=O)(=O)c1cccc(NC(=O)c2ccc([S+](C)[O-])cc2)c1 (stereo not shown) [Compound 207c, N-(3-(N-methyl-N-(4-(methylsulfonyl)phenyl)sulfamoyl)phenyl)-4-(methylsulfinyl)benzamide]

melting point: 213 to 215 °C (dec.) | inhibition at 10 µM (SIRT2): 26%
Structure (SMILES): CN(c1ccc(S(C)(=O)=O)cc1)S(=O)(=O)c1cccc(NC(=O)c2ccc(S(C)(=O)=O)cc2)c1 [Compound 207d, N-(3-(N-methyl-N-(4-(methylsulfonyl)phenyl)sulfamoyl)phenyl)-4-(methylsulfonyl)benzamide]

melting point: 161 to 162 °C | inhibition at 10 µM (SIRT2): 63%
Structure (SMILES): CSc1ccc(CSc2cccc(C(=O)Nc3ccc(C#N)cn3)c2)cc1 [Compound 211a, N-(5-cyanopyridin-2-yl)-3-((4-(methylthio)benzyl)thio)benzamide]

melting point: 159 to 161 °C | inhibition at 10 µM (SIRT2): 42%
Structure (SMILES): CSc1ccc(CSc2cccc(C(=O)Nc3ccc(Cl)cn3)c2)cc1 [Compound 211b, N-(5-chloropyridin-2-yl)-3-((4-(methylthio)benzyl)thio)benzamide]

melting point: 167 to 169 °C | inhibition at 10 µM (SIRT2): 69%
Structure (SMILES): COc1ccc(CSc2cccc(C(=O)Nc3ccc(C#N)cc3)c2)cc1 [Compound 211c, N-(4-cyanophenyl)-3-((4-methoxybenzyl)thio)benzamide]

melting point: 163 to 164 °C | inhibition at 10 µM (SIRT2): 46%
Structure (SMILES): COc1ccc(CSc2cccc(C(=O)Nc3ccc(C#N)cn3)c2)cc1 [Compound 211d, N-(5-cyanopyridin-2-yl)-3-((4-methoxybenzyl)thio)benzamide]

melting point: 160 to 162 °C | inhibition at 10 µM (SIRT2): 74%
Structure (SMILES): N#Cc1ccc(NC(=O)c2ccnc(SCc3ccc(F)cc3)c2)cc1 [Compound 211e, N-(4-cyanophenyl)-2-((4-fluorobenzyl)thio)isonicotinamide]

melting point: 201 to 203 °C | inhibition at 10 µM (SIRT2): 68%
Structure (SMILES): COc1ccc(CSc2cc(C(=O)Nc3ccc(C#N)cc3)ccn2)cc1 [Compound 211f, N-(4-cyanophenyl)-2-((4-methoxybenzyl)thio)isonicotinamide]

melting point: 148 to 150 °C | inhibition at 10 µM (SIRT2): 59%
Structure (SMILES): N#Cc1ccc(NC(=O)c2cccc(SCc3ccc(F)cc3)c2)cc1 [Compound 211g, N-(4-cyanophenyl)-3-((4-fluorobenzyl)thio)benzamide]

melting point: 149 to 150 °C | inhibition at 10 µM (SIRT2): 56%
Structure (SMILES): N#Cc1ccc(NC(=O)c2cccc(OCc3cccc(F)c3F)c2)cc1 [Compound 216Aa, N-(4-cyanophenyl)-3-((2,3-difluorobenzyl)oxy)benzamide]

melting point: 181 to 183 °C | inhibition at 10 µM (SIRT2): 84%
Structure (SMILES): CC(=O)c1ccc(C(C)Oc2cncc(C(=O)Nc3ccc(C#N)cc3)c2)cc1 (stereo not shown) [Compound 216Ab, 5-(1-(4-acetylphenyl)ethoxy)-N-(4-cyanophenyl)nicotinamide]

melting point: 79 to 81 °C | inhibition at 10 µM (SIRT2): 93%
Structure (SMILES): CC(=O)c1ccc(C(C)Oc2cccc(C(=O)Nc3ccc(C#N)cc3)c2)cc1 (stereo not shown) [Compound 216Ac, 3-(1-(4-acetylphenyl)ethoxy)-N-(4-cyanophenyl)benzamide]

melting point: 142 to 143 °C | inhibition at 10 µM (SIRT2): 58%
Structure (SMILES): N#Cc1ccc(NC(=O)c2cccc(OCc3cccc(F)c3)c2)cc1 [Compound 216Ad, N-(4-cyanophenyl)-3-((3-fluorobenzyl)oxy)benzamide]

melting point: 185 to 187 °C | inhibition at 10 µM (SIRT2): 57%
Structure (SMILES): N#Cc1ccc(NC(=O)c2cccc(OCc3cc(F)cc(F)c3)c2)cc1 [Compound 216Ae, N-(4-cyanophenyl)-3-((3,5-difluorobenzyl)oxy)benzamide]

melting point: 179 to 181 °C | inhibition at 10 µM (SIRT2): 12%
Structure (SMILES): CC(O)c1ccc(C(C)Oc2cncc(C(=O)Nc3ccc(C#N)cc3)c2)cc1 (stereo not shown) [Compound 216Af, N-(4-cyanophenyl)-5-(1-(4-(1-hydroxyethyl)phenyl)ethoxy)nicotinamide]

melting point: 147 to 148 °C | inhibition at 10 µM (SIRT2): 60%
Structure (SMILES): CSc1ccc(COc2cccc(C(=O)Nc3ccc(C#N)cc3)c2)cc1 [Compound 216a, N-(4-cyanophenyl)-3-((4-(methylthio)benzyl)oxy)benzamide]

melting point: 146 to 147 °C | inhibition at 10 µM (SIRT2): 22%
Structure (SMILES): CSc1ccc(COc2cccc(C(=O)Nc3ccc(C#N)cn3)c2)cc1 [Compound 216b, N-(5-cyanopyridin-2-yl)-3-((4-(methylthio)benzyl)oxy)benzamide]

melting point: 147 to 148 °C | inhibition at 10 µM (SIRT2): 40%
Structure (SMILES): COc1ccc(COc2cccc(C(=O)Nc3ccc(C#N)cc3)c2)cc1 [Compound 216c, N-(4-cyanophenyl)-3-((4-methoxybenzyl)oxy)benzamide]
